Experimental data: patent publication US20240010655A1, “DIHYDROIMIDAZO PYRIMIDO PYRIMIDINONE COMPOUND” (priority 2019, published 2024)
pIC50: −log10 of the molar value.

Columns and labels:
LoVo cell = experiment: Inhibition of proliferation of LoVo cell, CCK-8 method; format: cell-based; details: Homo sapiens, 72 h, CCK-8, 3 days, read-out: IC50, inhibitory effect on the proliferation of LoVo cell
Method: Determination of the Inhibitory Effect of Compounds on the Proliferation of LoVo Cell Using CCK-8 Method
(§1) The cells were digested by trypsinase and centrifuged at 800 rpm for 5 minutes, the supernatant was discarded, and the residual was resuspended with fresh medium and counted. The cells were seeded into 96-well cell culture plate with a density of 6000 cells per well and incubated overnight in a 5% C02 incubator at 37° C. The stock solutions of test compounds were serially diluted to 8 concentrations by DMSO at the ratios of 1:3 and 1:10, respectively. The final concentration of compound was: 10 μM, 3.3 μM, 1 μM, 0.33 μM, 0.1 μM, 0.033 μM, 0.01 μM and 0 μM. 5 μL diluent of each concentration was added to 120 μL of medium (25 times diluted) and mixed by shaking. The overnight cell plates were taken and the culture medium was removed, 195 μL of fresh medium was added to each well, and 5 μL of diluted medium containing the corresponding concentration of the test compound was added respectively (the final concentration of DMSO is 1‰), and the culture plate was then placed in a 5% CO2 incubator at 37° C. for 3 days. After removing the original solution, 90 μL of fresh serum-free 1640 medium was added, then 10 μL of CCK-8 reagent was added to each well and continued incubation for 2 hours. The 96-well plates were placed in a multi-function reader to read the absorbance at the wavelength of 450/650 nm. Cell viability (%)=(ODcompound−ODbackground)/(ODDMSO−ODbackground)×100. GraphPad Prism 5.0 was used to analyze the data. The inhibitory activity of compounds on cell proliferation was plotted based on cell viability and the logarithm of compound concentration. The IC50 value was fitted by a sigmoidal dose response curve equation Y=100/(1+10^(Log C−Log IC50)), wherein C was the concentration of compound.
Table 2 summarizes the inhibitory effect data (IC50) of compounds on the proliferation of LoVo cell

NCI-H1299 cell = experiment: Inhibition of proliferation of NCI-H1299 cell, CCK-8 method; format: cell-based; details: Homo sapiens, NCI-H1299, 72 h; CCK-8, 3 days; read-out: IC50, inhibitory effect on the proliferation of NCI-H1299 cell
Method: Determination of the Inhibitory Effect of Compounds on the Proliferation of NCI-H1299 Cell Using CCK-8 Method
as §1, with “1000” for “6000”, “CO2” for “C02”
Table 3 summarizes the inhibitory effect data (IC50) of compounds on the proliferation of NCI-H1299 cell.

Wee1 (h) = Wee1 (h) (Homo sapiens, UniProt P30291); experiment: Wee1(h) kinase activity experiment ([γ-33P]-ATP, filtermat, scintillation counting); format: biochemical; details: 10 μM ATP, 40 minutes at room temperature; read-out: IC50, inhibitory effect on Wee1 kinase activity
Method: Determination of the Inhibitory Effect of Compounds on Wee1 Kinase Using Wee1(h) Kinase Activity Experiment
Wee1 (h) is incubated with 20 mM Tris/HCl pH 8.5, 0.2 mM EDTA, 500 μM […], 10 mM MgAcetate and 10 μM [γ-^33P]-ATP. Then 50 times the concentration of the testing compound in 100% DMSO was added until the final concentration was 10 μM, then mixed, and diluted to 10 concentrations in successive series according to the ratio of 1:3 and 1:10 respectively (the last concentration was DMSO negative control): 10 μM, 3 μM, 1 μM, 0.3 μM, 0.1 μM, 0.03 μM, 0.01 μM, 0.003 μM, 0.001 μM, 0 μM. The reaction is initiated by the addition of the Mg/ATP mix. After incubation for 40 minutes at room temperature, the reaction is stopped by the addition of phosphoric acid to a concentration of 0.5%. 10 μL of the reaction liquor is then spotted onto a P30 filtermat and washed four times in 0.425% phosphoric acid and once in methanol prior to drying and scintillation counting. Each compound sample is duplicated in duplicate. The negative control was the components except of Wee1 enzyme, and the positive control was the components of adding 30% phosphoric acid to terminate the reaction. Table 1 summarizes the inhibitory effects of compounds on Wee1 kinase activity (IC50).

advanced solid tumors = details: cited from earlier work
[1] = 176 evaluable patients, AZD1775 alone or in combination with chemotherapy

Sequence of Wee1 (h) (P30291 whole entry): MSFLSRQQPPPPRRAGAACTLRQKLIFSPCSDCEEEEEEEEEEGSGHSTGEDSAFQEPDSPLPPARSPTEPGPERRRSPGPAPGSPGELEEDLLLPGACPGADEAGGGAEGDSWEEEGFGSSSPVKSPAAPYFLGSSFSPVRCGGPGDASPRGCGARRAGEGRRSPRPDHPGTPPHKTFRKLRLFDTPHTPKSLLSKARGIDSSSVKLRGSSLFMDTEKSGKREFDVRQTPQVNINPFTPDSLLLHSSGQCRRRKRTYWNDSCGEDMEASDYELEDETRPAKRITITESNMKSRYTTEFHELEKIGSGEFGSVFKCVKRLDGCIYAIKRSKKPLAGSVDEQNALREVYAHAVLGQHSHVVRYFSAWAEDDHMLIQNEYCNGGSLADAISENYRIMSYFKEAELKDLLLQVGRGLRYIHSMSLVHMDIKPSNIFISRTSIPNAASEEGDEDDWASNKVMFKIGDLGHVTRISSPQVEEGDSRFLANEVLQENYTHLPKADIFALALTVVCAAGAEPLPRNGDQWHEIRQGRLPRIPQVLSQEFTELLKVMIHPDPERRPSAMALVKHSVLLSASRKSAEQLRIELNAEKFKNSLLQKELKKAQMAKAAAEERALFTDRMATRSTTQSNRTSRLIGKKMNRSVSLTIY

pIC50 (LoVo cell) | pIC50 (NCI-H1299 cell) | pIC50 (Wee1 (h)) | Structure (SMILES) | patients with partial response (advanced solid tumors; [1]) [%] | patients with stable disease as the best response (advanced solid tumors; [1]) [%] | response rate in patients with TP53 mutation (advanced solid tumors; TP53 mutation (n=19)) [%] | response rate in TP53 wild-type patients (advanced solid tumors; TP53 wild-type (n=33)) [%]
6.91 | 6.74 |  | Cc1cc(Nc2ncc3c(n2)N2CCN=C2N(c2c(Cl)cccc2Cl)C3=O)cc(F)c1N1C[C@@H](C)N(C)[C@@H](C)C1 [Example 5, 6-(2,6-dichlorophenyl)-2-((3-fluoro-5-methyl-4-((3S,5R)-3,4,5-trimethylpiperazin-1-yl)phenyl)amino)-8,9-dihydroimidazo[1,2-a]pyrimido[5,4-e]pyrimidin-5(6H)-one] |  |  |  | 
7.11 | 7.10 | 7.64 | Cc1cc(Nc2ncc3c(n2)N2CCN=C2N(c2c(Cl)cccc2Cl)C3=O)ccc1C1CCN(C)CC1 [Example 12, 6-(2,6-dichlorophenyl)-2-((3-methyl-4-(1-methylpiperidin-4-yl)phenyl)amino)-8,9-dihydroimidazo[1,2-a]pyrimido[5,4-e]pyrimidin-5(6H)-one] |  |  |  | 
6.66 | 6.42 |  | C[C@@H]1CN(c2ccc(Nc3ncc4c(n3)N3CCN=C3N(c3c(Cl)cccc3Cl)C4=O)cc2Br)C[C@H](C)N1C [Example 3, 2-((3-bromo-4-((3S,5R)-3,4,5-trimethylpiperazin-1-yl)phenyl)amino)-6-(2,6-dichlorophenyl)-8,9-dihydroimidazo[1,2-a]pyrimido[5,4-e]pyrimidin-5(6H)-one] |  |  |  | 
 |  |  | C=CCn1c(=O)c2cnc(Nc3ccc(N4CCN(C)CC4)cc3)nc2n1-c1cccc(C(C)(C)O)n1 [AZD1775] | 10 | 53 | 21 | 12
7.14 | 7.07 | 7.59 | Cc1cc(Nc2ncc3c(n2)N2CCN=C2N(c2c(Cl)cccc2Cl)C3=O)cc(F)c1C1CCN(C)CC1 [Example 13, 6-(2,6-dichlorophenyl)-2-((3-fluoro-5-methyl-4-(1-methylpiperidin-4-yl)phenyl)amino)-8,9-dihydroimidazo[1,2-a]pyrimido[5,4-e]pyrimidin-5(6H)-one] |  |  |  | 
6.79 | 6.67 | 7.52 | Cc1cc(Nc2ncc3c(n2)N2CCN=C2N(c2c(Cl)cccc2Cl)C3=O)ccc1N1C[C@H](C)N(C)[C@@H](C)C1 [Example 8, 6-(2,6-dichlorophenyl)-2-((3-methyl-4-((3S,5S)-3,4,5-trimethylpiperazin-1-yl)phenyl)amino)-8,9-dihydroimidazo[1,2-a]pyrimido[5,4-e]pyrimidin-5(6H)-one] |  |  |  | 
6.90 | 7.15 | 7.43 | Cc1cc(Nc2ncc3c(n2)N2CCN=C2N(c2c(Cl)cccc2Cl)C3=O)ccc1N1C[C@@H](C)N[C@@H](C)C1 [Example 1, 6-(2,6-dichlorophenyl)-2-((4-((3S,5R)-3,5-dimethylpiperazin-1-yl)-3-methylphenyl)amino)-8,9-dihydroimidazo[1,2-a]pyrimido[5,4-e]pyrimidin-5(6H)-one] |  |  |  | 
6.27 | 6.03 | 7.64 | Cc1cc(Nc2ncc3c(n2)N2CCN=C2N(c2c(Cl)cccc2Cl)C3=O)ccc1C1CCNCC1 [Example 9, 6-(2,6-dichlorophenyl)-2-((3-methyl-4-(piperidin-4-yl)phenyl)amino)-8,9-dihydroimidazo[1,2-a]pyrimido[5,4-e]pyrimidin-5(6H)-one] |  |  |  | 
6.80 | 6.91 | 7.68 | [2H]C([2H])([2H])N1[C@H](C)CN(c2ccc(Nc3ncc4c(n3)N3CCN=C3N(c3c(Cl)cccc3Cl)C4=O)cc2C)C[C@@H]1C [Example 2, 6-(2,6-dichlorophenyl)-2-((4-((3S,5R)-3,5-dimethyl-4-(methyl-d3)piperazin-1-yl)-3-methylphenyl)amino)-8,9-dihydroimidazo[1,2-a]pyrimido[5,4-e]pyrimidin-5(6H)-one] |  |  |  | 
